Data as given in patent US20230046081A1, “SYNERGISTIC ACTIVITY OF NOVEL COMPOUNDS AGAINST PLANKTONIC AND BIOFILM CELLS OF CLINICALLY RELEVANT PATHOGENS” (priority 2021, published 2023).
Structures can show the parent of a compound that is named as a salt.

Key:
[1] = dog, in vivo; cited from earlier work
[2] = tested on: Gram-positive, Gram-negative, and fungal biofilms; test: MBEC Assay, 48 h old biofilms on pegs, 24 h antimicrobial exposure; format: cell-based; conditions: 24 hours of treatment
Method: The evaluation of the biofilm cultivation cell composition was evaluated using an MBEC Assay® biofilm inoculator, consisting of a polystyrene lid with 96 downward-protruding pegs and a corresponding base used to grow biofilms. A standardized inoculum was diluted in an appropriate biofilm growth medium to achieve a viable cell count of 1.5×10^6 CFU/mL of bacterial cells or 5×10^5 CFU/mL of fungal cells. Then, 150 μL of this inoculum was transferred into each appropriate well, and the peg lids were inserted into the microtiter plates. The plates were sealed with Parafilm and were incubated at optimum temperature for 48 h with slight rocking for bacteria and shaking at 200 rpm for fungal strains. After incubation, the peg lid was removed from the base and rinsed twice with sterile phosphate-buffered saline (PBS) for 2 min to remove loosely attached non-sessile cells. Before the antimicrobial challenge, the pegs in column 1 (n=8) were considered as the biofilm growth control; these pegs were removed from the lids, placed into 200 μL of recovery medium, and analyzed for starting biofilm cell numbers as described below. […] After the antimicrobial challenge, the pegs were rinsed twice with sterile PBS for 2 min and placed into a new 96-well plate containing 200 μL of recovery medium. The recovery plates were sealed with Parafilm, and biofilm cells were dislodged from the pegs by sonication for 30 min with a Branson 3510 bath sonicator. The biofilm cells in the recovery medium were serially diluted, and a drop dilution assay was performed to enumerate the viable cells.

[3] = tested on: bacterial and fungal biofilms (eight test organisms); test: Rapid biofilm eradication, 48-h old biofilms, 2 hour exposure; format: cell-based
Method: This example comprises performing biofilm growth as described above. After biofilm formation, control pegs (n=6) were removed and analyzed to determine the starting biofilm cell numbers via the drop dilution method. The 48-h old biofilms on the pegs were exposed to different concentrations of test antimicrobials, dissolved in an appropriate growth medium, for 2 hours to evaluate their efficacy alone and in combination. […] Following treatment, pegs were washed twice with sterile PBS, and the biofilm cells were dislodged into recovery medium and enumerated as described above.

[4] = tested on: Klebsiella pneumoniae, E. coli, S. epidermidis, P. aeruginosa, and C. albicans; conditions: 40 mg/mL, locked for 21-25 h; cited from earlier work
[5] = tested on: commonly encountered pathogens; conditions: cited from earlier work

Structure (SMILES)	cochlear or vestibular neurotoxicity [1]	concentration alone able to eradicate all established biofilms [2]	eradication of preformed biofilms, agent alone at its MBEC [3]	biofilm colonization on catheter segments [4]	minimum ethanol required to provide a 3-log reduction [5] [%]
[H]/N=C(\N/C(=N/[H])NCCCCCCNC(=N)NC(=N)Nc1ccc(Cl)cc1)Nc1ccc(Cl)cc1 [chlorhexidine, 1,6-bis(4-chloro-phenylbiguanido)hexane]	did not induce cochlear or vestibular neurotoxicity	–	–	–	–
O=C(O)CN(CCN(CC(=O)O)CC(=O)O)CC(=O)O.[Na].[Na].[Na].[Na] [tetrasodium EDTA, tetrasodium ethylenediaminetetraacetic acid]	–	4%	failed to eradicate	reduced biofilm colonization	–
CCO [ethanol, reference compound]	–	50%	failed to eradicate	–	≥ 60
[H]/N=C(\N/C(=N/[H])NCCCCCCNC(=N)NC(=N)Nc1ccc(Cl)cc1)Nc1ccc(Cl)cc1 [chlorhexidine HCl, 1,6-bis(4-chloro-phenylbiguanido)hexane, reference compound]	–	100 µg/mL	failed to eradicate	–	–
